# Experimental data: US7919329B2, “Method for screening for agents that affect food intake” (Oregon Health & Science University, priority 2001, dated 2011)
# Like-named read-outs stand apart in the source and are kept apart here. No end group written: not given here.
# Key:
# [1] = system: POMC neurons; assay: GABAergic IPSCs recorded in POMC neurons of ARC slices; format: cell-based, mouse
# [2] = system: POMC neurons; assay: I-V relationships of drug-induced currents in POMC neurons; format: cell-based, mouse; conditions: leptin 100 nM, slow voltage ramps
# [3] = system: non-POMC neurons in the arcuate nucleus; assay: Membrane potential of non-fluorescent (non-POMC) neurons in the arcuate nucleus; format: cell-based, mouse; conditions: 13 cells tested; also hyperpolarized 5 and depolarized 3
# [4] = system: POMC neurons; assay: Whole cell recordings of membrane potential of EGFP-labeled POMC neurons in arcuate (ARC) slices; format: cell-based, mouse
# [5] = system: POMC neurons; assay: Action potential frequency / firing rate of POMC neurons (whole cell and loose cell-attached); format: cell-based, mouse; conditions: for POMC neuron firing rate (frequency of action potentials): fenfluramine 20 μM, loose-cell-attached, n=3
# [6] = system: hypothalamic explants; conditions: hypothalamic explants (Batterham et al.); cited from earlier work
compound,measurement,setting,value
leptin: adipostatic hormone,inhibition of IPSCs in the presence of tetrodotoxin (TTX),[1],still inhibited IPSCs
same,decrease of frequency of GABAergic IPSCs,"[1]; 100 nM, leptin in 5 out of 15 cells, NPY in all 12 POMC cells tested",25%
same,reversal of small inward current,[2],approximately −20 mV
same,effect on adjacent non-fluorescent ARC cells,[3],no effect on 5 of 13 adjacent non-fluorescent cells tested
same,time to depolarization after addition,[4]; leptin 0.1-100 nM,2 to 10 min
same,depolarization of POMC cells,"[4]; leptin 0.1-100 nM, 72 of 77 POMC cells",3-30 mV
D-Trp^8-γMSH,increase of frequency of GABAergic IPSCs,"[1]; D-Trp8-γMSH 7 nM, 3 of 4 POMC neurons",280±90%
same,frequency of action potentials,[5]; D-Trp8-γMSH 7 nM,decreased the frequency of action potentials
"CCNC(C)Cc1cccc(C(F)(F)F)c1 (stereo not drawn) [Fenfluramine, fenfluramine]",POMC neuron firing rate (frequency of action potentials),[5],two fold increase
same,POMC neuron firing rate (frequency of action potentials),[5]; listed as d-FEN,doubling
same,resting membrane potential of POMC neurons (depolarization),[4],depolarized POMC neurons
"Clc1cncc(N2CCNCC2)n1 [MK 212, 6-Chloro-2-(1-piperazinyl)pyrazine]",resting membrane potential of POMC neurons (depolarization),[4],depolarized POMC neurons
picrotoxin,IPSCs,[1],blocked all IPSCs
"Clc1cccc(N2CCNCC2)c1 [mCPP, 1-(3-Chlorophenyl)piperazine]",resting membrane potential of POMC neurons (depolarization),[4],depolarized POMC neurons
"NC1=N[C@H](O)[C@H]2[C@H]3O[C@]4(O)O[C@@H]([C@@H](O)[C@@]2(N1)[C@@H]4O)[C@]3(O)CO [TTX, tetrodotoxin]",large amplitude IPSCs,[1],abolished large IPSCs
NCCc1c[nH]c2ccc(O)cc12 [serotonin],resting membrane potential of POMC neurons (depolarization),"[4]; serotonin receptor agonists bath-applied four minutes, whole cell, n=4-8 per dose",increased the resting membrane potential (depolarized)
"N-acetyl (Leu^28, Leu^31) NPY (24-36) (Ac-LRHYLNLLTRQRY; ends and bridges not checked) [Y2A]",reduction of frequency of IPSCs onto POMC neurons,"[1]; PYY3-36 (50 nM, FIG. 6c) n=13, Y2A n=8",44.4±9.3%
same,A-MSH release,[6],concomitant increase in A-MSH release
same,NPY release,[6],significantly decreased NPY release
same,depolarization of POMC neurons,"[4]; whole cell, PYY3-36 (10 nM, FIG. 6a) n=22, 19 of 22 depolarized, Y2A n=9",8.7±1.8 mV
met-enkephalin (YGGFM),spontaneous action potential generation,[5],prevented spontaneous action potential generation
"ghrelin: agent known to increase feeding, caloric intake, and appetite, and decrease energy expenditure (GSSFLSPEHQRVQQRKESKKPPAKLQPR; ends and bridges not checked; UniProt Q9UBU3 24-51, looked up)",frequency of IPSCs in POMC neurons,[1]; ghrelin 50 nM,increase in the frequency of IPSCs
same,decrease of action potential firing rate of POMC neurons,"[5]; ghrelin 50 nM, loose cell attached mode",50%
same,"hyperpolarization of POMC neurons, mean","[4]; ghrelin 50 nM, three minutes, whole cell",1.47±0.7 mV
neuropeptide Y [NPY],inhibition of IPSCs in the presence of tetrodotoxin (TTX),[1],still inhibited IPSCs
same,time to decrease of IPSC frequency,[1]; NPY 100 nM,≤ 3 min
same,hyperpolarization of POMC neurons (average),"[4]; NPY, n=3, all POMC neurons tested",9±6 mV
